Data published in paper PMC5290327, “SC83288 is a clinical development candidate for the treatment of severe malaria” (Nature Communications, 2017).

Key:
[1] = tested on: P. falciparum strain FCR3; assay: Growth inhibition assay; type: cell-based; settings: Plasmodium falciparum
[2] = tested on: 13 human cytochrome P450 enzymes; assay: Inhibition of cytochrome P450 enzymes, whole panel; settings: 10 μM
CYP2C19 = CYP2C19 (Homo sapiens, UniProt P33261); assay: CYP inhibition, human liver microsomes; settings: 10 µM
CYP2C19, sequence (P33261 whole entry): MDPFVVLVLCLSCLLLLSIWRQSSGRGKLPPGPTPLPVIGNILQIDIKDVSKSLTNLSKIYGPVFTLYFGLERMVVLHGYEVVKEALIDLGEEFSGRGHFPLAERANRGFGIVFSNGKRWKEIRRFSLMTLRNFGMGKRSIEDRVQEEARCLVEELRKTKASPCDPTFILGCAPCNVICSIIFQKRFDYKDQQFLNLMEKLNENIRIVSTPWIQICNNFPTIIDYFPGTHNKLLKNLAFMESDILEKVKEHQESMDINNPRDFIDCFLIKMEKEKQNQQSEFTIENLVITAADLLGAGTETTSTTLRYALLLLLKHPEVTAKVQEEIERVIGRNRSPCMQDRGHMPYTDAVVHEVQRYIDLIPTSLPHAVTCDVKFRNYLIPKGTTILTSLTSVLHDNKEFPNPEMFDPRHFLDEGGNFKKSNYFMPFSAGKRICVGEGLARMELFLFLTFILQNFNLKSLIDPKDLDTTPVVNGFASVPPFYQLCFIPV

dopamine transporter (h) = molecular target: T1, dopamine transporter (h) (Homo sapiens, UniProt Q01959); assay: Radioligand binding
T1 construct: Cerep (contract screening)
T1 sequence (Q01959 whole entry): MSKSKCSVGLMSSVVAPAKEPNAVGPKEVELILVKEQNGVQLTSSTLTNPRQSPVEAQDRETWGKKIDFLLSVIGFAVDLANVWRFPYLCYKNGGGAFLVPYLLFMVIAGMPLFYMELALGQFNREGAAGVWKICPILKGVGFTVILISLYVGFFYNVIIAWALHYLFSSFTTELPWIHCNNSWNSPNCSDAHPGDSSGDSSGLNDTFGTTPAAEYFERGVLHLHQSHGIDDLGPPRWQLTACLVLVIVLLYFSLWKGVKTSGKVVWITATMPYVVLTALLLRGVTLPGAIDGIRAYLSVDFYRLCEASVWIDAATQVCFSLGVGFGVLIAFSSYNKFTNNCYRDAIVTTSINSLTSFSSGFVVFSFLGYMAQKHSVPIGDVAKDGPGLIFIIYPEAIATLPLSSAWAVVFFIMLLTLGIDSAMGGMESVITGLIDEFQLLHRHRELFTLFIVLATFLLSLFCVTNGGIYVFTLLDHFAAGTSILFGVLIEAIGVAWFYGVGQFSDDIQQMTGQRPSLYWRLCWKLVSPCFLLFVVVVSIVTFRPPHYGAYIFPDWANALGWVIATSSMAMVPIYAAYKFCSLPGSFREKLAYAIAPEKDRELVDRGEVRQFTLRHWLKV

CCR1 (h) = molecular target: T2, CCR1 (h) (Homo sapiens, UniProt P32246); assay: Radioligand binding
T2 construct: Cerep
T2 sequence (P32246 1-355): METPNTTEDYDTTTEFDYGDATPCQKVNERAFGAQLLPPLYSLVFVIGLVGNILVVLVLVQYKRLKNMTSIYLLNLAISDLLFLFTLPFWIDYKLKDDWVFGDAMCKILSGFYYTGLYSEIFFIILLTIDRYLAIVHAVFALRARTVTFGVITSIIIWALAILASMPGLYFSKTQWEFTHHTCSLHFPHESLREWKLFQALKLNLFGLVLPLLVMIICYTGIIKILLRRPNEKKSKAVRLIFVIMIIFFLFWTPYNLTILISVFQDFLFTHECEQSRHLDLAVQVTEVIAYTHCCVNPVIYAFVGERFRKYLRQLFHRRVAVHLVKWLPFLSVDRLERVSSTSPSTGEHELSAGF

CYP2E1 = CYP2E1 (Homo sapiens, UniProt P05181); assay: CYP inhibition, human liver microsomes; settings: for Remaining enzyme activity: CYP2E1, chlorzoxazone to 6-OH-chlorzoxazone, 10 µM
CYP2E1, sequence (P05181 whole entry): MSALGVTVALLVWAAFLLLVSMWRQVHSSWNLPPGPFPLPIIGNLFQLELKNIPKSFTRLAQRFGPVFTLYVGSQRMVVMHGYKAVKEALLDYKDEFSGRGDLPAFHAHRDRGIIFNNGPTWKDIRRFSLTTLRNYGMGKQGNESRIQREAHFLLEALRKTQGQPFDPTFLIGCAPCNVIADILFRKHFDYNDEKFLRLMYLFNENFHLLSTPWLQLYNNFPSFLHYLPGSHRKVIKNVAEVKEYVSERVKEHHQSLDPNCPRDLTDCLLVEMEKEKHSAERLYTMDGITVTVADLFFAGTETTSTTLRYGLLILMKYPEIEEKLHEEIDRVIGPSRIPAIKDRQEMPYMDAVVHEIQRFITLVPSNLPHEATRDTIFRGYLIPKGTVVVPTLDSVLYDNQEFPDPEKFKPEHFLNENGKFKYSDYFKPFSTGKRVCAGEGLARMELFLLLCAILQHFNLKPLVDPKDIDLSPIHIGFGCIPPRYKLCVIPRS

[3] = tested on: P. falciparum strain NF54; assay: Growth inhibition assay; type: cell-based; settings: Plasmodium falciparum
CXCR2 (IL-8B) (h) = molecular target: T3, CXCR2 (IL-8B) (h) (Homo sapiens, UniProt P25025); assay: Radioligand binding
T3 construct: Cerep
T3 sequence (P25025 1-360): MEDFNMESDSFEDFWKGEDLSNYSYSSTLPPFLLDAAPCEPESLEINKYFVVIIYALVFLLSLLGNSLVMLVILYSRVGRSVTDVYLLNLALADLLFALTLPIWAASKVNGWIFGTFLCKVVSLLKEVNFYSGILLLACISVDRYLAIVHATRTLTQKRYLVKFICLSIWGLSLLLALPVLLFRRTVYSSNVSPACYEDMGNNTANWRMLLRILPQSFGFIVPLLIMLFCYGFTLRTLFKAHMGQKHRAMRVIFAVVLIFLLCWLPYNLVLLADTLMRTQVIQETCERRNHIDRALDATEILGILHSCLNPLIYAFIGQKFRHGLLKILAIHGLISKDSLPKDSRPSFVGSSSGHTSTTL

d2 (DOP) (h) = molecular target: T4, d2 (DOP) (h) (Homo sapiens, UniProt P41143); assay: Radioligand binding
T4 construct: Cerep
T4 sequence (P41143 whole entry): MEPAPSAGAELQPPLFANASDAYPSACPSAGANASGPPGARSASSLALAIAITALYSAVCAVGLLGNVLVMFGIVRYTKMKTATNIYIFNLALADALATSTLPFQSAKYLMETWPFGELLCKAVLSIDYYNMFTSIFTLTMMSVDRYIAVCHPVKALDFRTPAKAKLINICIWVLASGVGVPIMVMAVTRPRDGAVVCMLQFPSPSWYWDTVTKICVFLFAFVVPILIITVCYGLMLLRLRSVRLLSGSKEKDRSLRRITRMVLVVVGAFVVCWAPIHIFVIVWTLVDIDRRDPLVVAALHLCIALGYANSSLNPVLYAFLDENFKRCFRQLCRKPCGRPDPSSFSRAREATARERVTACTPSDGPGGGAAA

P. falciparum strain 3D7 = assay: Growth inhibition assay; type: cell-based; settings: Plasmodium falciparum
H1 (h) = molecular target: T5, H1 (h) (Homo sapiens, UniProt P35367); type: binding
T5 construct: Cerep
T5 sequence (P35367 whole entry): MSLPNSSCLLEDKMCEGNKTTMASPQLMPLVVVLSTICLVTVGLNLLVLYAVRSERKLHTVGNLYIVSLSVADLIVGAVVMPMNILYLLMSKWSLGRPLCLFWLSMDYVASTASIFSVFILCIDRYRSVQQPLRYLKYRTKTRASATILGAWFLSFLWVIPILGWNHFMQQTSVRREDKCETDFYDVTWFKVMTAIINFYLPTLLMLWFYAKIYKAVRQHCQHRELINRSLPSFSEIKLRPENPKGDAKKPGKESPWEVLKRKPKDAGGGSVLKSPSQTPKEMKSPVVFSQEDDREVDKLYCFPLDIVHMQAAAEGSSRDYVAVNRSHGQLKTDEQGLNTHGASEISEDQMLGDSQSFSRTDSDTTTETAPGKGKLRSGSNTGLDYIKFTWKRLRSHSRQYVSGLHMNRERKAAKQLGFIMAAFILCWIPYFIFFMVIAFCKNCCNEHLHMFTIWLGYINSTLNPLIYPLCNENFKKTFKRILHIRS

Balb C 3T3 cells = assay: Cytotoxicity; settings: 50 μM
P. falciparum strain K1 = assay: microbe, parasite or virus in culture; type: cell-based; settings: Plasmodium falciparum
5-HT7 (h) = molecular target: T6, 5-HT7 (h) (Homo sapiens, UniProt P34969); assay: Radioligand binding
T6 construct: Cerep (contract screening)
T6 sequence (P34969 whole entry): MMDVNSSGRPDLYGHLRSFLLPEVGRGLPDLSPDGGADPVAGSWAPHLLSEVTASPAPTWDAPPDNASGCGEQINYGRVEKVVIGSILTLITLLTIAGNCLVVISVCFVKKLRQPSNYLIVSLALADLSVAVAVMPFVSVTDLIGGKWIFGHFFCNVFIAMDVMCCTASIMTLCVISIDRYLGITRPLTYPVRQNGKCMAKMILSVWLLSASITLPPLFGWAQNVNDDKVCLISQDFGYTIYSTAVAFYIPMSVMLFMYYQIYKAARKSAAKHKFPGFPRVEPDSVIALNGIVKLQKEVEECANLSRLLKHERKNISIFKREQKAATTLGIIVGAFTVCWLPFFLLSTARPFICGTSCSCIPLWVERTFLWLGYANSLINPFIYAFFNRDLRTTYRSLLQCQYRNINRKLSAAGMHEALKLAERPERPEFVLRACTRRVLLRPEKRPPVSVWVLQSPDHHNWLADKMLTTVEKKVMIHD

5-HT5a (h) = molecular target: T7, 5-HT5a (h) (Homo sapiens, UniProt P47898); assay: Radioligand binding
T7 construct: Cerep (contract screening)
T7 sequence (P47898 whole entry): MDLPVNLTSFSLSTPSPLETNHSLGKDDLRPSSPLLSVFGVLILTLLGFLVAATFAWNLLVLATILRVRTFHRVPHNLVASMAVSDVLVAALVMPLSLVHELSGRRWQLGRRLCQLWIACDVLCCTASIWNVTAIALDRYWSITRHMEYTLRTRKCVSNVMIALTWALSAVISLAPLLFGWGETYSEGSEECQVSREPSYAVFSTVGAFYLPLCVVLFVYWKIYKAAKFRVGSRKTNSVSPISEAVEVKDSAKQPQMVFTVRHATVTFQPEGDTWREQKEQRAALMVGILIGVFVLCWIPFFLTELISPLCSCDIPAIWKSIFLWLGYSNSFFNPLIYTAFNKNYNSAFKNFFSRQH

ETA (h) = molecular target: T8, ETA (h) (Homo sapiens, UniProt P25101); assay: Radioligand binding
T8 construct: Cerep
T8 sequence (P25101 21-427): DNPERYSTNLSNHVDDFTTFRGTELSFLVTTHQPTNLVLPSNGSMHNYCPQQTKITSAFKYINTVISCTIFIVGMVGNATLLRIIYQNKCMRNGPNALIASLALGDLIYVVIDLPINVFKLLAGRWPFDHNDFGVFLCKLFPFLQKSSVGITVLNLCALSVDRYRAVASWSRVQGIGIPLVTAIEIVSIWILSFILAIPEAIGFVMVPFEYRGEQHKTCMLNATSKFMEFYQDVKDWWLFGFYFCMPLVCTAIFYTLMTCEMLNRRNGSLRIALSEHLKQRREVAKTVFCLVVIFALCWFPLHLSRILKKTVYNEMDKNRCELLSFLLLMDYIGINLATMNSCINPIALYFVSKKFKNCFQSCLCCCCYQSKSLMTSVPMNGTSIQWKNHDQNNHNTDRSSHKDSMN

BZD (central) = assay: Radioligand binding
5-HT2B (h) = molecular target: T9, 5-HT2B (h) (Homo sapiens, UniProt P41595); assay: Radioligand binding
T9 construct: Cerep (contract screening)
Experimental: (§1) The study was carried out by Cerep (Celle l'Evescault, France). An in vitro pharmacological profiling panel was designed to detect potential high-risk clinical adverse drug reactions. The panel comprised of 54 targets.
(§2) The specific ligand binding to the receptors was defined as the difference between the total binding and the non-specific binding determined in the presence of an excess of unlabelled ligand. Results were expressed as a per cent of control specific binding and as a per cent inhibition of control specific obtained in the presence of the test compounds. Results showing an inhibition (or stimulation) >50% were considered to represent significant effects of the test compounds. […] The IC50 values were determined by non-linear regression analysis of the competition curves generated with mean replicate values using Hill equation curve fitting. The inhibition constants (Ki) were calculated using the Cheng Prusoff equation.

a2 (non-selective) = assay: Radioligand binding
Experimental: as §1, §2

a1 (non-selective) = assay: Radioligand binding
Experimental: as §1, §2

sst (non-selective) = assay: Radioligand binding
Experimental: as §1, §2

[4] = tested on: Ca2+ channel (L, verapamil site); assay: Radioligand binding
Experimental: as §1, §2

b1 (h) = molecular target: T10, b1 (h) (Homo sapiens, UniProt P08588); assay: Radioligand binding
T10 construct: Cerep (contract study)
T10 sequence (P08588 whole entry): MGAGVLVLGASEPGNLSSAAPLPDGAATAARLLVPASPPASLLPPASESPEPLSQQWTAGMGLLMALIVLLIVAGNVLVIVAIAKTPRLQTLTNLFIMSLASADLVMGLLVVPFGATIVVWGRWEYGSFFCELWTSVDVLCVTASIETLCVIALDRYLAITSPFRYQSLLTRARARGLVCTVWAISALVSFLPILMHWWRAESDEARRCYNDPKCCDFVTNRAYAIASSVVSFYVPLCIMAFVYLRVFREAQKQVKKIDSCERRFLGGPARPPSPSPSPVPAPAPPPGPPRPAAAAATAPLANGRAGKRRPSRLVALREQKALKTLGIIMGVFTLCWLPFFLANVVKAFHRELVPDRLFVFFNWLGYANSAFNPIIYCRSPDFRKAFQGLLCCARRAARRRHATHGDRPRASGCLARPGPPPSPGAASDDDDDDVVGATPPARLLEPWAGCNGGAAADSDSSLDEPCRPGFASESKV

[5] = tested on: early stage (I–III) gametocytes, NF54^Pfs16; assay: Gametocytocidal activity, luciferase assay; type: cell-based; settings: Plasmodium falciparum, 72 h
Experimental: (§3) Activity against early- and late-stage gametocytes was determined in miniaturized 384-wells plate assays as previously described. Briefly, gametocytes from a recombinant line NF54^Pfs16, expressing a green fluorescent protein–luciferase reporter gene under the gametocyte-specific Pfs16 promoter were induced and purified as previously described; gametocytes were then treated either on day 1 (stage I gametocytes) or day 8 of gametocytogenesis (stage IV gametocytes) with serially diluted SC81458 or SC83288 to achieve a final top concentration of 40 μM (0.4% dimethylsulphoxide(DMSO)). After 72 h of incubation, gametocyte inhibition was assessed by luminometry, after addition of Steadylite plus luciferase detection kit (PerkinElmer) to the plate wells[58][59].

[6] = tested on: late stage (IV and V) gametocytes, NF54^Pfs16; assay: Gametocytocidal activity, luciferase assay; type: cell-based; settings: Plasmodium falciparum, 72 h
Experimental: as §3

AT1 (h) = molecular target: T11, AT1 (h) (Homo sapiens, UniProt P30556); assay: Radioligand binding
T11 construct: Cerep (contract study)
T11 sequence (P30556 whole entry): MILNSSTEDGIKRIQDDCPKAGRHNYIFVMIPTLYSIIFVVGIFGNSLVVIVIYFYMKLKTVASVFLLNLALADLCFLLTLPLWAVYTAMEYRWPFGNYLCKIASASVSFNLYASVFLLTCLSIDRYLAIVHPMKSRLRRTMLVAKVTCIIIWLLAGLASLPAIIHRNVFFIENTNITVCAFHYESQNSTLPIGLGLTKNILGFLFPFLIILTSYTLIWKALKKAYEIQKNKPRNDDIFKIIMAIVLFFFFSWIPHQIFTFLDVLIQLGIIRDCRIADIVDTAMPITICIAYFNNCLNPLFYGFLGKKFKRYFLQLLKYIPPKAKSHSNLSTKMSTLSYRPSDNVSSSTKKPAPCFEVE

[7] = CYP2C19a, omeprazole to 5-OH-omeprazole
[8] = CYP2C19b, omeprazole to desmethylomeprazole

Row | SMILES | IC50 [1] | inhibition potential towards 13 human cytochrome P450 enzymes [2] | Remaining enzyme activity (CYP2C19; [7]) | Remaining enzyme activity (CYP2C19; [8]) | Inhibition of control specific binding (dopamine transporter (h)) | Inhibition of control specific binding (CCR1 (h)) | Remaining enzyme activity (CYP2E1) | IC50 [3] | Inhibition of control specific binding (CXCR2 (IL-8B) (h)) | Inhibition of control specific binding (d2 (DOP) (h)) | IC50 (P. falciparum strain 3D7) | Inhibition of control specific binding (H1 (h)) | in vitro propagation / cytotoxicity (Balb C 3T3 cells) | IC50 (P. falciparum strain K1) | Inhibition of control specific binding (5-HT7 (h)) | Inhibition of control specific binding (5-HT5a (h)) | Inhibition of control specific binding (ETA (h)) | Inhibition of control specific binding (BZD (central)) | Inhibition of control specific binding (5-HT2B (h)) | Inhibition of control specific binding (a2 (non-selective)) | other results
1 | CCCCN1CCN(C(=N)c2cccc(NC(=O)Nc3ccc(S(=O)(=O)NCc4ccc(S(N)(=O)=O)cc4)cc3)c2)CC1 [SC81458, 4-(3-(3-((4-butylpiperazin-1-yl)(imino)methyl)phenyl)ureido)-N-(4-sulfamoylbenzyl) benzenesulfonamide] | 13 ± 8 nM | low | 87% | 89% | 79% | -13% | 106% | 0.4 ± 0.05 nM | -8% | 10% | 13 ± 1 nM | 6% | did not affect | 9 ± 3 nM | 19% | 1% | 1% | 16% | 37% | 21% | Inhibition of control specific binding (a1 (non-selective)): 21%; Inhibition of control specific binding (sst (non-selective)): -2%; Inhibition of control specific binding [4]: 17%; Inhibition of control specific binding (b1 (h)): -2%; IC50 [5]: 76 ± 6 nM; IC50 [6]: 1800 ± 200 nM; Inhibition of control specific binding (AT1 (h)): 11%
2 | COC(=O)N1CCN(C(=N)c2cccc(NC(=O)Nc3ccc(S(=O)(=O)NCc4ccc(S(N)(=O)=O)cc4)cc3)c2)CC1 [SC83288, methyl 4-(imino(3-(3-(4-(N-(4-sulfamoylbenzyl)sulfamoyl)phenyl)ureido)phenyl)methyl) piperazine-1-carboxylate] | 6 ± 1 nM | low | 104% | 96% | 82% | -2% | 68% | 2 ± 1 nM | -1% | 1% | 8 ± 2 nM | 8% | did not affect | 5 ± 1 nM | 4% | 16% | 0% | 70% | 17% | 14% | inhibition at 20 min, 10 µM (CYP2E1; human, pooled liver microsomes, pH 7.4, probe chlorzoxazone (10 μM)): 30%; Inhibition of control specific binding (a1 (non-selective)): 9%; Inhibition of control specific binding (sst (non-selective)): 4%; Inhibition of control specific binding [4]: 14%; Inhibition of control specific binding (b1 (h)): 7%; IC50 [5]: 199 ± 30 nM; IC50 [6]: > 30000 nM; Inhibition of control specific binding (AT1 (h)): 6%
